Laboratory results: patent publication US8722849B2, “Polypeptides” (Novo Nordisk A/S, priority 2011, dated 2014)
Values after ≈ are worked out from the molar mass of the structure shown. Like-named read-outs stand apart in the source and are kept apart here. Starred links: 1 amine or outer side, 2 acyl side, 3 side chain; linkers in the order of their positions; H or OH if unused. Positions of bridges follow the written chain, without caps; N, C: chain ends. Residues, ends and D or L forms follow the SMILES beside them. *: point of attachment. C20 diacid = O=C(O)CCCCCCCCCCCCCCCCCCC(=O)*; γGlu = O=C(O)[C@H](CCC(=O)[*:2])N[*:1]

Legend:
[1] = Assay (IX) pK, determination of T½ in mini-pig; assay type: in vivo, Göttingen mini-pigs; conditions: male, Göttingen, iv, 2 nmol/kg; minipig; plasma terminal half-life
[2] = target: T1, rat calcitonin (a) receptor (Rattus norvegicus, UniProt P32214); test: Assay (II)b functional cAMP FlashPlate assay, rat calcitonin receptor; assay type: cell-based; conditions: Table 11; read-out: CTa receptor rat EC50
T1 construct: expressed in transfected cells; host or cells: BHK tk'ts 13
T1 sequence (P32214 25-479 isoform P32214-2 limits assumed): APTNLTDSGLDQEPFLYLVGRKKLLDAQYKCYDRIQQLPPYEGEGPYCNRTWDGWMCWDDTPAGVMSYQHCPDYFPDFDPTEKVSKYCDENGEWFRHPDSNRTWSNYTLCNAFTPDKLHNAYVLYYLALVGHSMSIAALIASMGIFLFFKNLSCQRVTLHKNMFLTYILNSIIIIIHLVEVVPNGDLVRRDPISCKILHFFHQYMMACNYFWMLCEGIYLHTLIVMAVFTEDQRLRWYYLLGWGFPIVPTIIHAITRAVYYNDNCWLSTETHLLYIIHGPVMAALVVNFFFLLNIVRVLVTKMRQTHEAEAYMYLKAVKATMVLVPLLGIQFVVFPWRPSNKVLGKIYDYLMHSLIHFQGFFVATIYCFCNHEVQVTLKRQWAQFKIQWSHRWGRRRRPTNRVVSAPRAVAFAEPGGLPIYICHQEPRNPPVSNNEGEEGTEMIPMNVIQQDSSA
Procedure, shortened: (§1)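 BHK tk'ts 13 cells transiently transfected with rat calcitonin(a) receptor, alone or with rat RAMP3 (amylin 3(a)), were stimulated 24 hours later with sample for 30 min in buffer containing IBMX. cAMP measured by competitive radioactive FlashPlate assay, scintillation read after 3 h detection incubation.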

[3] = Assay (IV) determination of solubility; assay type: physicochemical
Procedure, shortened: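 Polypeptide in water (~500 nmol/ml stock) was mixed 1:1 with 100 mM buffers from pH 3.0 to 8.0 (glycylglycine pH 3.0–5.0; bistrispropane pH 6.0–8.0). After 18 hours at room temperature, samples were centrifuged and the polypeptide remaining in solution was quantified by HPLC.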

[4] = target: T2, rat amylin 3(a) receptor (rat calcitonin(a) receptor + rat RAMP3) (Rattus norvegicus, UniProt P32214+Q9JJ73); test: Assay (II)b functional cAMP FlashPlate assay, rat amylin receptor; assay type: cell-based; conditions: Table 11
T2 construct: expressed in transfected cells; host or cells: BHK tk'ts 13
T2 sequence (P32214 25-479 isoform P32214-2 limits assumed): T1 sequence (P32214 25-479 isoform P32214-2 limits assumed)
T2 sequence (Q9JJ73 23-147 partner): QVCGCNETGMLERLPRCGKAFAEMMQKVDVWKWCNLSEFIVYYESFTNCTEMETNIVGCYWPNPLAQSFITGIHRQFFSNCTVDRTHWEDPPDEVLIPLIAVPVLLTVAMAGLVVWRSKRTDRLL
Procedure, shortened: as §1

[5] = target: T3, human calcitonin receptor (Homo sapiens, UniProt P30988); test: Assay (II)a functional CRE-luciferase assay, human calcitonin receptor; assay type: cell-based; conditions: Table 7; human calcitonin (CTa) receptor
T3 construct: expressed in transfected cells; host or cells: BHK570
T3 sequence (P30988 25-474): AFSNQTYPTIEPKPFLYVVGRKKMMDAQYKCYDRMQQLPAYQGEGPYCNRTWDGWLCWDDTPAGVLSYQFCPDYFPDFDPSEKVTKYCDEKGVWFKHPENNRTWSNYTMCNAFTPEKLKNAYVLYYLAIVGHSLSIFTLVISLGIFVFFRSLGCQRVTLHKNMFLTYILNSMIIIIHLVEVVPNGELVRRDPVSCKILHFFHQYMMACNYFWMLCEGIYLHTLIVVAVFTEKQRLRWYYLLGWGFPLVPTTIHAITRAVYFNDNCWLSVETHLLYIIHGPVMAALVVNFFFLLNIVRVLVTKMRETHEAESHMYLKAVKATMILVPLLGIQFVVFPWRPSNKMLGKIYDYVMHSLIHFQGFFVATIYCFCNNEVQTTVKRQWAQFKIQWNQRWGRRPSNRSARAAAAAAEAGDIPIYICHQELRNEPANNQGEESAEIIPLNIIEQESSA

[6] = target: T4, human amylin receptor (amylin 3(a) receptor: human calcitonin receptor + RAMP-3) (Homo sapiens, UniProt O60896+P30988); test: Assay (II)a functional CRE-luciferase assay, human amylin receptor; assay type: cell-based; conditions: Table 2; BHK amylin 3(a)-receptor/CRE-luc cells
T4 construct: expressed in transfected cells; host or cells: BHK570
T4 sequence (P30988 25-474): T3 sequence (P30988 25-474)
T4 sequence (O60896 24-148 partner): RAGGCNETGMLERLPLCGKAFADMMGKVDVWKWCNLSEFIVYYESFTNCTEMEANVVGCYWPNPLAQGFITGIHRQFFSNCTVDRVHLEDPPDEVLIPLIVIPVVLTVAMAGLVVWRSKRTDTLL

amylin receptor = target: T5, amylin receptor (Homo sapiens, UniProt P30988); conditions: amylin receptor vs calcitonin receptor, cited from earlier work
T5 sequence (P30988 25-474): T3 sequence (P30988 25-474)

[7] = cited from earlier work
[8] = bistrispropane buffer, pH 6, pH 6.0, read-out: Solubility pH 6.0
[9] = bistrispropane buffer, pH 6.5, pH 6.5, read-out: Solubility pH 6.5
[10] = bistrispropane buffer, pH 7, pH 7.0, 18 hours at room temperature, Table 3, read-out: Solubility pH 7.0
[11] = bistrispropane buffer, pH 7, pH 7.0, read-out: Solubility pH 7.0
[12] = bistrispropane buffer, pH 7.5, pH 7.5, read-out: Solubility pH 7.5
[13] = glycylglycine buffer, pH 3, pH 3.0, read-out: Solubility pH 3.0
[14] = glycylglycine buffer, pH 4, pH 4.0, 18 hours at room temperature, Table 2, read-out: Solubility pH 4.0
[15] = glycylglycine buffer, pH 4, pH 4.0, read-out: Solubility pH 4.0
[16] = glycylglycine buffer, pH 5, pH 5.0, read-out: Solubility pH 5.0

half-life [1] | EC50 [2] | solubility at 18 h [3, 8] | solubility at 18 h [3, 9] | solubility at 18 h [3, 10] | solubility at 18 h [3, 11] | solubility at 18 h [3, 12] | solubility at 18 h [3, 13] | solubility at 18 h [3, 14] | solubility at 18 h [3, 15] | solubility at 18 h [3, 16] | EC50 [4] | EC50 [5] | EC50 [6] | Compound | also measured
73 h | 673 pM | > 200 µM | 146 µM (≈ 654 µg/mL) | 102 µM (≈ 459 µg/mL) | 102 µM (≈ 459 µg/mL) | 108 µM (≈ 486 µg/mL) | > 200 µM | > 200 µM | > 200 µM | > 200 µM | 262 pM | 163 pM | 152 pM | CC[C@H](C)[C@H](NC(=O)[C@@H]1CCCN1C(=O)CNC(=O)[C@H](Cc1ccccc1)NC(=O)[C@H](CC(N)=O)NC(=O)[C@H](CC(N)=O)NC(=O)[C@H](CO)NC(=O)[C@H](CO)NC(=O)[C@H](Cc1c[nH]cn1)NC(=O)[C@H](Cc1cnc[nH]1)NC(=O)[C@H](CC(C)C)NC(=O)[C@H](Cc1ccccc1)NC(=O)[C@H](CCC(=O)O)NC(=O)[C@H](C)NC(=O)[C@H](CC(C)C)NC(=O)[C@H](CCCNC(=N)N)NC(=O)[C@H](CCC(N)=O)NC(=O)[C@@H](NC(=O)[C@H](C)NC(=O)[C@@H]1CSSC[C@H](NC(=O)[C@H](CCCCN)NC(=O)CC[C@H](NC(=O)CCCCCCCCCCCCCCCCCCC(=O)O)C(=O)O)C(=O)N[C@@H](CC(N)=O)C(=O)N[C@@H]([C@@H](C)O)C(=O)N[C@@H](C)C(=O)N[C@@H]([C@@H](C)O)C(=O)N1)[C@@H](C)O)C(=O)N[C@@H](CC(C)C)C(=O)N1CCC[C@H]1C(=O)N1CCC[C@H]1C(=O)N[C@H](C(=O)N[C@@H](CC(N)=O)C(=O)N[C@H](C(=O)NCC(=O)N[C@@H](CO)C(=O)N[C@@H](Cc1cnc[nH]1)C(=O)N[C@H](C(=O)N[C@@H](Cc1ccc(O)cc1)C(N)=O)[C@@H](C)O)C(C)C)[C@@H](C)O [Example 55, N-alpha-[(S)-4-Carboxy-4-(19-carboxynonadecanoylamino)butyryl]-[Glu14,His17,His35]-pramlintide] ({C20 diacid-γGlu}-KCNTATCATQRLAEFLHHSSNNFGPILPPTNVGSHTY-NH2; disulfide 2-7) | solubility at 18 h ([3]; bistrispropane buffer, pH 8, pH 8.0, read-out: Solubility pH 8.0): 146 µM (≈ 654 µg/mL)
68 h | 2840 pM | > 200 µM | > 200 µM | > 200 µM | > 200 µM | 121 µM (≈ 544 µg/mL) | > 200 µM | > 200 µM | > 200 µM | > 200 µM | 511 pM | 387 pM | 111 pM | CC[C@H](C)[C@H](NC(=O)[C@@H]1CCCN1C(=O)CNC(=O)[C@H](Cc1ccccc1)NC(=O)[C@H](CC(N)=O)NC(=O)[C@H](CC(N)=O)NC(=O)[C@H](CO)NC(=O)[C@H](CO)NC(=O)[C@H](Cc1c[nH]cn1)NC(=O)[C@H](CCCNC(=N)N)NC(=O)[C@H](CC(C)C)NC(=O)[C@H](Cc1ccccc1)NC(=O)[C@H](CCC(=O)O)NC(=O)[C@H](C)NC(=O)[C@H](CC(C)C)NC(=O)[C@H](CCCNC(=N)N)NC(=O)[C@H](CCC(N)=O)NC(=O)[C@@H](NC(=O)[C@H](C)NC(=O)[C@@H]1CSSC[C@H](NC(=O)[C@H](CCCCN)NC(=O)CC[C@H](NC(=O)CCCCCCCCCCCCCCCCCCC(=O)O)C(=O)O)C(=O)N[C@@H](CC(N)=O)C(=O)N[C@@H]([C@@H](C)O)C(=O)N[C@@H](C)C(=O)N[C@@H]([C@@H](C)O)C(=O)N1)[C@@H](C)O)C(=O)N[C@@H](CC(C)C)C(=O)N1CCC[C@H]1C(=O)N1CCC[C@H]1C(=O)N[C@H](C(=O)N[C@@H](CC(N)=O)C(=O)N[C@H](C(=O)NCC(=O)N[C@@H](CO)C(=O)N[C@@H](Cc1cnc[nH]1)C(=O)N[C@H](C(=O)N[C@@H](Cc1ccc(O)cc1)C(N)=O)[C@@H](C)O)C(C)C)[C@@H](C)O [Example 57, N-alpha-[(S)-4-Carboxy-4-(19-carboxynonadecanoylamino)butyryl]-[Glu14,Arg17,His35]-pramlintide] ({C20 diacid-γGlu}-KCNTATCATQRLAEFLRHSSNNFGPILPPTNVGSHTY-NH2; disulfide 2-7) | solubility at 18 h ([3]; bistrispropane buffer, pH 7, pH 7.0, Table 8, read-out: Solubility pH 7.0): > 200 µM; solubility at 18 h ([3]; bistrispropane buffer, pH 7, pH 7.0, Table 9, read-out: Solubility pH 7.0): > 200 µM; solubility at 18 h ([3]; bistrispropane buffer, pH 7.5, pH 7.5, Table 9, read-out: Solubility pH 7.5): 121 µM (≈ 544 µg/mL); solubility at 18 h ([3]; pH 8.0, read-out: Solubility pH 8.0): 80 µM (≈ 360 µg/mL)
 |  |  |  |  |  |  |  |  |  |  |  |  |  | pramlintide | potency on the amylin receptor relative to the calcitonin receptor (amylin receptor): 14 times; potency on the amylin receptor relative to the calcitonin receptor (amylin receptor; listed as Pramlintide): approximately 14 times
 |  |  |  |  |  |  |  |  |  |  |  |  |  | salmon calcitonin | plasma half-life [7]: about 45 minutes
